{"source": "patent US11155558B2", "about": "“Dual mode of action soluble guanylate cyclase activators and phosphodiesterase inhibitors and uses thereof” (TOPADUR PHARMA AG, priority 2017, dated 2021)", "key": {"[1]": {"test_system": "Human Pulmonary Artery Smooth Muscle Cells (hPASMC)", "assay": "Measurements of cGMP in human pulmonary artery smooth muscle cells (hPASMC)", "type": "cell-based", "conditions": "30 min incubation, 0.1 pM-1 uM, compared to sildenafil, mirodenafil or compound 5 (FIG. 3)", "description": "Human Pulmonary Artery Smooth Muscle Cells (hPASMC) were purchased from Clonetics™ Lonza (Lonza, reference number CC-2581) and cultured in Clonetics™ smooth muscle growth medium (Clonetics™ SmGM™-2 with BulletKit™ growth factor supplements (Lonza, reference number CC-3182) at 37° C. in 5% CO2. Culture medium was replaced each 48 hours. Cells were grown in 75 cm^2 culture plates. 48 h before the experiments, cells were trypsinized (Trypsin kit One ReagentPack™ (CC-5034), Lonza) and plated in 96 well plates precoated with collagen I at 10000 cells per well. 24 h before the experiments culture medium was replaced by serum-reduced (0.5% FBS) medium. […]\nMeasurements of intracellular cGMP were performed using the Amersham cGMP EIA System (GE Healthcare, RPN226) following the instructions of the manufacturer. […] Briefly, incubations were terminated by adding Amersham's lysis buffer 1 and cells left for 10 min under agitation to ensure complete lysis. cGMP in samples was then acetylated using triethylamine and acetic anhydride and determined by a competitive ELISA. The ELISA is based on the competition between acetylated cGMP in cell culture lysates and a peroxidase-labelled cGMP conjugate for limited binding sites on a cGMP specific antiserum immobilized on pre-coated 96 well MTP. cGMP was determined based on a standard curve. […]"}, "[2]": {"assay": "Measurements of human plasma protein binding", "type": "in vitro ADME", "description": "An aliquot of 200 μL of human plasma containing test compound was spiked into donor well (red chamber) of the insert. 350 μL of PBS was spiked into receiver well (white chamber) of the insert.\nThe samples were matrix equilibrated with opposite matrix (25 μL of plasma/buffer sample was matched with 25 μL of blank buffer/plasma). Matrix matched samples were precipitated with 200 μL of acetonitrile containing internal standard. Samples were vortexed at 1000 rpm for 5 min and centrifuged at 4000 rpm for 10 min. Supernatant was separated, diluted 2 fold with water and analysed in LC-MS/MS. TO control samples were processed immediately after the preparation of plasma working stock solutions. These samples serves as a measure for calculating the percentage recovery of test compounds."}, "[3]": {"molecular_target": "PDE5 enzyme isolated from human platelets (Homo sapiens (Human), UniProt O76074)", "assay": "PDE5 assay (Example 109), formation of 5′GMP from cGMP, SPA;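 further: tritiated 5′GMP counted by scintillation after SPA bead capture, enzyme reaction run 60 min at 22 °C, basal control is the mixture without enzyme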", "experimental": "Evaluation of the effects of compounds of the present invention on the activity of the human phosphodiesterase-5 quantified by measuring the formation of 5′GMP from cGMP using PDE5 enzyme isolated from human platelets.\nThereafter, the reaction is initiated by addition of the enzyme and the mixture is incubated for 60 min at 22° C.\nFor basal control measurements, the enzyme is omitted from the reaction mixture. Following incubation SPA beads are added. After 20 min at 22° C. under shaking, the amount of [3H]5′GMP is quantified with a scintillation counter (Topcount, Packard).\nThe standard inhibitory reference compound is dipyridamole, which is tested in each experiment at several concentrations to obtain an inhibition curve from which its IC50 value is calculated."}}, "data": [{"smiles": "CCCOc1ccc(S(=O)(=O)N2CCC(CCO[N+](=O)[O-])CC2)cc1-c1nc2c(CCC)cn(CC)c2c(=O)[nH]1", "note": "[Compound 1b, 2-(1-((3-(5-ethyl-4-oxo-7-propyl-4,5-dihydro-3H-pyrrolo[3,2-d]pyrimidin-2-yl)-4-propoxyphenyl)sulfonyl)piperidin-4-yl)ethyl nitrate]", "values": [{"measurement": "efficacy in increasing intracellular cGMP level", "setting": "[1]", "value": "significantly higher efficacy in increasing cGMP level"}, {"measurement": "% Bound in Plasma", "setting": "[2]", "value": 99.95, "unit": "%"}, {"measurement": "fraction unbound", "setting": "[2]", "value": 0.0005}, {"measurement": "recovery", "setting": "[2]; human", "value": 100, "unit": "%"}, {"measurement": "IC50", "setting": "[3]", "value": "> 0.01", "unit": "µM"}, {"measurement": "% inhibition at 5.0E−09 M", "setting": "[3]; percent inhibition of control enzyme activity at 5.0E−09 M, assay of Example 109", "value": 12.4, "unit": "%"}]}]}
